Measured values as given in patent publication US8119589B2, “Modulation of CD4+ T cell responses by a tick saliva protein, Salp15 and polypeptides derived therefrom” (University of North Carolina at Charlotte, priority 2004, dated 2012).

Columns and labels:
B cells and macrophages = assay: Receptor capping in B cells and macrophages (anti-IgM, anti-CD16/CD32 cross-linking); assay type: cell-based, mouse; conditions: 50 μg/mL Salp15; anti-IgM and Fc engagement
Experimental: For receptor capping studies, mouse primary B and CD11^+ cells were purified by positive selection using biotin anti-mouse CD45R/B220 clone RA3-6B2 and biotin anti-mouse CD11b clone M1/70 (BD Biosciences Pharmingen) respectively, followed by incubation with magnetic microbeads. The cells were analyzed for receptor capping using 25 μg/mL anti-mouse IgM and 25 μg/mL anti-mouse CD16/CD32 respectively, cross-linked with 25 μg/mL of anti-rat IgG594 for 10 min in the presence or absence of 50 μg/mL of Salp15. CD4^+ and CD8^+ T cells were purified by negative selection and incubated with 10 μg/mL anti-CD3 and 1 μg/mL anti-CD28 cross-linked with 10 μg/mL of anti-hamster IgG488 for 10 min in the presence or absence of 50 μg/mL of Salp15.

CD4+ T cells = assay: Salp15488 binding on cell surface by confocal microscopy; design: species or system mouse
Experimental: (§1) For colocalization experiments, Jurkat and CD4^+ T cells were cytospun as described herein. HeLa and HeLa-CD4 cells were grown on chamber slides. The cells were fixed and stained with anti-CD4 and Salp15 as follows. Purified Salp15 was labeled using Alexa-488 with the Protein Labeling Kit (Molecular Probes) according to the manufacturer's instructions. Fixed cells were blocked with 5% normal serum and anti-CD16/CD32 (1:100) in PBS, incubated with 1 μg of monoclonal biotinylated anti-CD4 (L3T4) (BD Biosciences Pharmingen) followed by streptavidin594 staining. The cells were then stained with 20 μg/mL of Salp15488. For competition assays, cells were first blocked with 5% normal serum, incubated with either polyclonal anti-CD4 antibody, MT310, OKT4, normal rabbit IgG, Salp15 (0.5 mg/mL) or lysozyme (0.5 mg/mL) followed by staining with Salp15488. All samples were mounted in a GVA Mount (Zymed, San Francisco, Calif., U.S.A.) and visualized with an Olympus Confocal microscope equipped with Fluoview 3.0 software.

CD8+ cells = assay: as above; design: species or system mouse
CD4 on HeLa-CD4 cells = target: T1, CD4 on HeLa-CD4 cells (Homo sapiens, UniProt P01730); assay: Salp15488 binding to HeLa-CD4 and HeLa cells (flow cytometry, confocal microscopy)
T1 construct: host or cells: HeLa
Experimental: as §1
Actin polymerization assay was performed as described earlier (Krishnan et al., 2004). […] The cells were washed, resuspended in PBS and analyzed for F-actin content on a FACSCalibur with CellQuest software (Beckton Dickinson, Mountain View, Calif., U.S.A.). […] The cells were washed twice with PBS and analyzed by flow cytometry.

With “Salp15: secreted salivary protein from Ixodes scapularis, SEQ ID NO: 2; recombinant His-tagged, produced in Drosophila S2 cells” the “Lipid raft reorganization (receptor capping)” value (B cells and macrophages) was “did not affect”, the “Binding to CD4+ T cells” value (CD4+ T cells) was “bind specifically” and the “Staining of CD8+ cells” value (CD8+ cells) was “no staining”. The “Salp15 binding on untransfected HeLa cells” value (CD4 on HeLa-CD4 cells; confocal microscopy) was “but not in untransfected cells” and the “Salp15 binding to HeLa-CD4 cells compared to non-transfected controls” value (CD4 on HeLa-CD4 cells; flow cytometry) was “increase”.
